Earlier results in US20110071071A1, “PSMB10: A DIAGNOSIS MARKER AND THERAPEUTIC TARGET OF CHRONIC REJECTION” (priority 2008, published 2011).

Tests used:
[1] = target: T1, chymotrypsin-like activity of the purified 20S proteasome (Homo sapiens, UniProt P28074); details: in vitro
T1 sequence (P28074 60-263): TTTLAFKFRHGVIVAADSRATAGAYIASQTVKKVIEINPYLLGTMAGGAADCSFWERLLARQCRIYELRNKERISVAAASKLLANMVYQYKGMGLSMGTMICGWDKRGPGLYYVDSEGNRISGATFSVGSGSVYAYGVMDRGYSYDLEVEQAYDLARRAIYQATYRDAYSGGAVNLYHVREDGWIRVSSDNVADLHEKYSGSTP

20S proteasome = 20S proteasome (Homo sapiens, UniProt P28072+P28074+Q99436); details: all three catalytic sites
[2] = system: murine neuroblastoma cell line Neuro-2a; details: Neuro-2a cells

## O=C(OC1Cc2c(O)cc(O)cc2OC1c1cc(O)c(O)c(O)c1)c1cc(O)c(O)c(O)c1 (single isomer, unassigned; (-)) [(−)-EGCG, (−)-epigallocatechin 3-gallate]
[1]
  inhibition of chymotrypsin-like (CT-L) activity of the 20S proteasome: inhibiting the chymotrypsin-like activity

## C[C@@]12OC(=O)[C@]1([C@@H](O)[C@@H]1C=CCCC1)NC(=O)[C@@H]2CCCl [NPI-0052, salinosporamide A]
20S proteasome
  20S proteasome inhibition: highly potent and selective 20S proteasome inhibitor with irreversible activity against all three catalytic sites

## CC(=O)N[C@@H](CSC(=O)[C@]1([C@@H](O)C(C)C)NC(=O)[C@H](C)[C@@H]1O)C(=O)O [lactacystin]
[2]
  neurite outgrowth: induce neurite outgrowth
